{
  "source": "paper PMC3253112",
  "about": "“Functional Evolution of Duplicated Odorant-Binding Protein Genes, Obp57d and Obp57e, in Drosophila” (PLoS ONE, 2012)",
  "experiment_in_all_cases": "intrinsic tryptophan fluorescence quenching",
  "format_in_all_cases": "binding",
  "conditions_in_all_cases": "20 mM sodium acetate pH 5.0, 25 °C, 1 µM OBP; Q = ligand concentration at which 3% of OBP is bound",
  "key": {"Dmel\\OBP57e": {"target": "T1, Dmel\\OBP57e (Drosophila melanogaster, UniProt Q9V938)", "T1 construct": "mature protein, signal peptide removed, untagged; cloning primer encodes NTSVFNP", "T1 sequence (Q9V938 21-136)": "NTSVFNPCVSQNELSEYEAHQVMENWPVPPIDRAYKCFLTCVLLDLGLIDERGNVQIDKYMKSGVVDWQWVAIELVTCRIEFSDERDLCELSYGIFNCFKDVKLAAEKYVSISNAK"}, "Dpse\\OBP57de": {"target": "T2, Dpse\\OBP57de (Drosophila pseudoobscura, UniProt A0A6I8UUP3)", "T2 construct": "gene LOC4804642; mature protein, signal peptide removed, untagged, Met added; primer encodes N-terminus HSNTAIFN", "T2 sequence (A0A6I8UUP3 20-133)": "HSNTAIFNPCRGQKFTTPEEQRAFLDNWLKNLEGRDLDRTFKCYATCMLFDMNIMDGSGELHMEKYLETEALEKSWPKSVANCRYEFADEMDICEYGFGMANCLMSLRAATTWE"}, "Dmel\\OBP57d [1]": {"target": "T3, Dmel\\OBP57d (Drosophila melanogaster, UniProt Q8MMF9)", "T3 construct": "mature protein, signal peptide removed, untagged, Met added; primer encodes N-terminus NDPCPHNQGID, C-terminus LTKS", "T3 sequence (Q8MMF9 30-136)": "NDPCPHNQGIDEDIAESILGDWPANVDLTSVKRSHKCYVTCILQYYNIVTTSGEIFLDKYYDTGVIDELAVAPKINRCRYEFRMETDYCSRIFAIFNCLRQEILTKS"}, "Dmel\\OBP57d [2]": {"target": "T4, Dmel\\OBP57d (Drosophila melanogaster, UniProt Q8MMF9, DEL101-101)", "T4 construct": "mature protein, signal peptide removed, untagged, Met added; primer encodes N-terminus NDPCPHNQGID, C-terminus LTKS", "T4 sequence (Q8MMF9 with tags, fused parts or gaps DEL101-101)": "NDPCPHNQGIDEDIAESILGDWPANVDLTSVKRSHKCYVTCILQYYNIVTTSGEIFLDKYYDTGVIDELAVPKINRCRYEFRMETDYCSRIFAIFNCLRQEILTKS"}, "Dmel\\OBP57d [3]": {"target": "T5, Dmel\\OBP57d (Drosophila melanogaster, UniProt Q8MMF9, Y89A)", "T5 construct": "mature protein, signal peptide removed, untagged, Met added; primer encodes N-terminus NDPCPHNQGID, C-terminus LTKS", "T5 sequence (Q8MMF9 30-136 Y89A)": "T3 sequence (Q8MMF9 30-136) with Y60A"}, "Dmel\\OBP57d [4]": {"target": "T6, Dmel\\OBP57d (Drosophila melanogaster, UniProt Q8MMF9, D96A)", "T6 construct": "mature protein, signal peptide removed, untagged, Met added; primer encodes N-terminus NDPCPHNQGID, C-terminus LTKS", "T6 sequence (Q8MMF9 30-136 D96A)": "T3 sequence (Q8MMF9 30-136) with D67A"}, "Dmel\\OBP57d [5]": {"target": "T7, Dmel\\OBP57d (Drosophila melanogaster, UniProt Q8MMF9, L133A)", "T7 construct": "mature protein, signal peptide removed, untagged, Met added; primer encodes N-terminus NDPCPHNQGID, C-terminus LTKS", "T7 sequence (Q8MMF9 30-136 L133A)": "T3 sequence (Q8MMF9 30-136) with L104A"}, "Dmel\\OBP57d [6]": {"target": "T8, Dmel\\OBP57d (Drosophila melanogaster, UniProt Q8MMF9, C33A)", "T8 construct": "mature protein, signal peptide removed, untagged, Met added; primer encodes N-terminus NDPCPHNQGID, C-terminus LTKS", "T8 sequence (Q8MMF9 30-136 C33A)": "T3 sequence (Q8MMF9 30-136) with C4A"}, "Dmel\\OBP57d [7]": {"target": "T9, Dmel\\OBP57d (Drosophila melanogaster, UniProt Q8MMF9, P52A)", "T9 construct": "mature protein, signal peptide removed, untagged, Met added; primer encodes N-terminus NDPCPHNQGID, C-terminus LTKS", "T9 sequence (Q8MMF9 30-136 P52A)": "T3 sequence (Q8MMF9 30-136) with P23A"}},
  "note": "Substitutions are numbered along the chain they refer to.",
  "data": [
    {"smiles": "CCCCCCCCCC(=O)O", "note": "[C10, decanoic acid]", "values": [
      {"measurement": "Q (quenching value)", "setting": "Dmel\\OBP57e", "value": "particularly obvious in the affinity to C10–C13 fatty acids and 1-tridecanol"}
    ]},
    {"smiles": "CCCCCCCCCCC(=O)O", "note": "[C11, C11 fatty acid]", "values": [
      {"measurement": "Q (quenching value)", "setting": "Dmel\\OBP57e", "value": "particularly obvious in the affinity to C10–C13 fatty acids and 1-tridecanol"}
    ]},
    {"smiles": "CCCCCCCCCCCC(=O)O", "note": "[C12, C12 fatty acid]", "values": [
      {"measurement": "Q (quenching value)", "setting": "Dmel\\OBP57e", "value": "particularly obvious in the affinity to C10–C13 fatty acids and 1-tridecanol"},
      {"measurement": "Q (quenching value)", "setting": "Dpse\\OBP57de", "value": "The binding affinity of Dmel\\OBP57e and Dpse\\OBP57de to the same set of compounds was examined"}
    ]},
    {"smiles": "CCCCCCCCCCCCC(=O)O", "note": "[C13, tridecanoic acid]", "values": [
      {"measurement": "Q (quenching value)", "setting": "Dmel\\OBP57d [1]", "value": "the strongest interaction was observed with the longer chain fatty acid (tridecanoic acid: C13)"},
      {"measurement": "Q (quenching value)", "setting": "Dmel\\OBP57d [2]", "value": "none showed a complete loss of interaction with ligands"},
      {"measurement": "Q (quenching value)", "setting": "Dmel\\OBP57e", "value": "Dmel\\OBP57e also showed higher affinity than Dpse\\OBP57de, not only to tridecanoic acid"},
      {"measurement": "Q (quenching value)", "setting": "Dmel\\OBP57d [3]", "value": "none showed a complete loss of interaction with ligands"},
      {"measurement": "Q (quenching value)", "setting": "Dmel\\OBP57d [4]", "value": "none showed a complete loss of interaction with ligands"},
      {"measurement": "Q (quenching value)", "setting": "Dmel\\OBP57d [5]", "value": "none showed a complete loss of interaction with ligands"},
      {"measurement": "Q (quenching value)", "setting": "Dmel\\OBP57d [6]", "value": "none showed a complete loss of interaction with ligands"},
      {"measurement": "Q (quenching value)", "setting": "Dmel\\OBP57d [7]", "value": "none showed a complete loss of interaction with ligands"}
    ]}
  ]
}
